A short description of data set [1]: Water solubility. It counts as physicochemical.
The test system of data set [2] is Cord-Blood Derived Primary Human Mast Cells (CHMC). In words: FcϵRI-dependent activation of CHMC, activity of tryptase released upon degranulation. It counts as cell-based. Conditions: Mast cell.
Data set [3] relates to CHMCs. Description: Ionomycin-induced degranulation of CHMCs. It counts as cell-based, Human.
The subject of data set [4] is FcϵRI-dependent production and release of LTC4. In words: FcϵRI-dependent production and release of LTC4. It counts as cell-based.
Data set [5] has as its system FcϵRI-dependent production and release of cytokines. In words: FcϵRI-dependent production and release of cytokines. It counts as cell-based. Conditions: read-out: EC50, all cytokines tested.
Data set [6] has as its system Reverse Passive Arthus (RPA) reaction. In words: Reverse Passive Arthus (RPA) reaction. It counts as in vivo, rat. From the text: IC-mediated acute inflammatory tissue injury is implicated in a variety of human autoimmune diseases, including vasculitis, serum sickness, systemic lupus erythematosus, RA, and glomerulonephritis. The classical experimental model for IC-mediated tissue injury is the Reverse Passive Arthus (RPA) reaction. Intravenous injection of antigen (ovalbumin, OVA) following intradermal injection of antibodies specific to OVA (rabbit anti-OVA IgG) results in perivascular deposition of IC and a rapid inflammatory response characterized by edema, neutrophil infiltration, and hemorrhage at the injection sites (Szalai, et al., 2000, J. Immunol. 164(1):463-468).

Data set [7] concerns collagen antibody-induced arthritis (CAIA). Description: Collagen antibody-induced arthritis (CAIA) model. It counts as in vivo, Balb/c mice. The text has this: This passive model differs from the traditional rodent collagen-induced arthritis (CIA) in that disease symptoms appear quickly (developing within 24-48 hrs after an IV-injection of antibodies), arthritis is inducible in both CIA-susceptible and CIA-resistant mouse strains, and it allows evaluation of inflammation that is independent of antibody production. CAIA was induced in Balb/c mice by intravenous injection of Arthrogen-CIA® Monoclonal Antibody Blend (Chemicon International, Inc., Temecula, Calif.) via the tail vein, followed 2 days later by an intraperitoneal injection of LPS. […] The severity of the arthritis in hind-paws was scored daily (scale of 0-4 per paw, sum of scores for both hind paws).

Data set [8] concerns collagen-induced arthritis. In words: Collagen-induced arthritis (CIA). Format: in vivo, Syngeneic LOU rats. From the text:
One of the experimental models for IC-mediated tissue injury is the CIA in rodents (Kleinau et al., 2000, J. Exp. Med. 191:1611-1616). Injection of type II collagen (CII) into rodents produces an immune reaction that characteristically involves inflammatory destruction of cartilage and bone of the distal joints with concomitant swelling of surrounding tissues. CIA in rats is commonly used to evaluate compounds that might be of potential use as drugs for treatment of rheumatoid arthritis and other chronic inflammatory conditions and is induced in susceptible strains of either mice or rats by injection of CII in incomplete Freund's adjuvant (IFA). Administration of this emulsion gives rise to polyarthritis, characterized by synovial hyperplasia, infiltration of mononuclear cells, pannus formation, and destruction of cartilage and bone. […] Syngeneic LOU rats were immunized on Day 0 with native chicken CII/IFA. Oral treatment began at the onset of arthritis symptoms (Day 10). […] Hind limbs were scored daily for clinical arthritis severity using a standardized method based on the degree of joint inflammation. High resolution digital radiographs of hind limbs were obtained at the conclusion of the study (Day 28). These limbs were also analyzed for histopathologic changes. IgG antibodies to native CII were measured in quadruplicate by ELISA. […] Brahn. 2004). Blinded composite histopathologic studies confirmed the regression of pannus and erosions: […] Antibodies to native CII were not decreased in Compound 1-treated rats.

A short description of data set [9]: GLP mutagenicity and clastogenicity studies (Ames, chromosomal aberration, mouse micronucleus). As to the method:
(§1) GLP toxicology studies included negative mutagenicity and clastogenicity studies (Ames, chromosomal aberration, and mouse micronucleus). […] The No Observed Adverse Effect Level (NOAEL) is 10-30 mg/kg/day for rats and 100 mg/kg/day for monkeys.

For data set [10] the following is noted: in vivo. As to the method: as §1
Data set [11] is described as follows: Pharmacokinetics, IV and oral dosing. It counts as in vivo, Sprague-Dawley rats. The protocol:
Prodrug Compound 4 was tested for oral bioavailability. For the study, the prodrug was dissolved in various vehicles (e.g. PEG 400 solution and CMC suspension) for intravenous and oral dosing in the rats. […] Following administration of the prodrug and/or drug, plasma samples were obtained and extracted. The plasma concentrations of the prodrug and/or drug were determined by high performance liquid chromatography/tandem mass spectrometry (LC/MS/MS) methods. Pharmacokinetic analyses were performed based on the plasma concentration data. The pharmacokinetic parameters of interest include Clearance (CL), Volume of distribution at steady-state (Vss), terminal half-life (t ½), and oral bioavailability (% F).
Referring to FIG. 4, PK profiles are shown for IV and PO administration in Sprague-Dawley rats. For IV administration, Compound 4 was dissolved in PEG-400 and administered at a dose of 1 mg/kg.
FIG. 5 summarizes the PK parameters for the study described in FIG. 4.
FIG. 11 illustrates the absorption of prodrug Compound 4 from different vehicles. […] Prodrug Compound 4 is absorbed equally well in solution formulations (PEG-400 and carboxymethylcellulose (CMC)) and as a powder in hard gelatin capsules.

The nature of data set [12]: Stability under acidic and neutral conditions. It counts as physicochemical. Conditions: acidic and neutral conditions at 37° C.
Data set [13] can be described thus: Conversion of prodrug to drug in microsome preparations. Format: in vitro ADME, rat. From the text:
Although phosphate-containing prodrugs suitable for oral administration are of interest, skilled artisans will appreciate that prodrugs including phosphate-containing progroups R^p can be administered via other routes of administration, as phosphatases are distributed throughout the body. […] Thus, the only requirement is that the particular phosphate-containing progroup R^p selected should be removable under the conditions of intended use.

Data set [14] is described as follows: Stability in rat plasma. It counts as in vitro ADME. The text has this:
The presence of Phosphatase activity in rat plasma was confirmed using p-nitrophenyl phosphate—a known substrate for phosphatase.

The nature of data set [15]: Moisture sorption analysis. It counts as physicochemical. The protocol: The sample for moisture analysis was allowed to dry at 25° C. for up to 4 hours under a stream of dry nitrogen. The relative humidity was then increased stepwise from 10 to 90% relative humidity (adsorption scan) allowing the sample to equilibrate for a maximum of four hours before weighing and moving on to the next step. The desorption scan was measured from 85 to 0% relative humidity with the same equilibration time. The sample was then dried at 80° C. for 2 hours or until no weight loss was observed under a stream of dry nitrogen.

Setting [16] is: aqueous buffer, aqueous buffer under physiological conditions, read-out: water solubility.
[17] abbreviates: water, water solubility, read-out: Solubility.
[18] abbreviates: water, in water, read-out: solubility.

Entries after “also recorded” stand apart in the source; their conditions may differ. Counter-ions that a name gives are not always drawn. Like-named read-outs stand apart in the source and are kept apart here.

What is called solubility is the dissolved amount per volume that the medium holds. What is called EC50 is the concentration giving half of the maximal effect. What is called inhibition is the relative decrease from the control value, in per cent. For the compound `COc1cc(Nc2ncc(F)c(Nc3ccc4c(n3)NC(=O)C(C)(C)O4)n2)cc(OC)c1OC` [Compound 1, N4-(2,2-dimethyl-3-oxo-4H-5-pyrido[1,4]oxazin-6-yl)-5-fluoro-N2-(3,4,5-trimethoxyphenyl)-2,4-pyrimidinediamine], the solubility in data set [1] (setting [16]) was under 1 µg/mL; in data set [1] (phosphate buffer, pH 7.5, aqueous buffer, phosphate buffer at pH=7.5, read-out: measured solubility), under 1 µg/mL; in data set [1] (setting [17]), under 1 µg/mL. Moreover, the results for the EC50 in [2], in [4] and in data set [5] were about 43 nM, 39 nM and 158 to 462 nM, respectively. The “inhibition of ionomycin-induced degranulation” value in data set [3] was “does not inhibit”. Besides, the inhibition at 10 mg/kg in data set [6] (Rattus norvegicus, 10 mg/kg oral, rats, compared with vehicle control, read-out: inhibition of extravascular leakage of Evans blue dye (OD610) from tissue biopsies) is 80%. In data set [6] (single oral treatment of rats one hour prior to antigen/antibody), the “cutaneous RPA reaction and inflammatory edema” value is “reduced the cutaneous RPA reaction and inflammatory edema in a dose-dependent manner”. Also, in data set [7] (lower dose levels, p>0.05), the “arthritis severity, disease incidence, time of onset” value is on record as “the differences were not significant”. The clinical arthritis result in [7] (oral, b.i.d., vs vehicle, p<0.05) was “significantly reduced clinical arthritis”. Besides, in [8] (30 mg/kg q.d. p.o., evident within 7 days after initiation of therapy, p<0.05), the arthritis severity entry is reported as “significant reduction”. For the same compound, the “Mean modified Mankin scores” value in [8] (30 mg/kg, vehicle 11.8±0.9, p<0.001) came to 3.7±0.9. Also, the clinical score in [8] (Day 28, 30 mg/kg, vehicle 6.08±0.67, p<0.001) came to 2.54±0.98. Further, the “joint damage, blinded radiographs” value in [8] (Day 28, vehicle 3.66±0.71, p<0.02) is reported as 1.63±0.67. In data set [8] (ELISA, treated rats), the “Antibodies to native CII” value is “not decreased”. Moreover, the mutagenicity and clastogenicity result in [9] was “negative”. Moreover, the 28-day toxicity findings entry in data set [10] (monkey) is “reversible effect on hematology”; in data set [10] (rat) it was “reversible effect on hematology, liver transaminase (mild effect in the rat only), spleen and thymus size (rat only) and bone marrow cellularity (rat and monkey)”. The “CD45RA+ cells, immunophenotyping” value in data set [10] (rat) is “significant increase”. Besides, in [10] (rat), the Histopathology entry was “mild reductions in marrow cellularity”. Also, the “humoral immunity, anti-KLH antibody assessment” value in data set [10] (rat) was “no evidence for untoward effects”. Also, the “percentage of CD3+ cells, immunophenotyping” value in [10] (rat) was “significant decrease”.

As for `COc1cc(Nc2ncc(F)c(Nc3ccc4c(n3)N(COP(=O)(O)O)C(=O)C(C)(C)O4)n2)cc(OC)c1OC` [Compound 4, N4-(2,2-dimethyl-4-[(dihydrogenphosphonoxy)methyl]-3-oxo-5-pyrido[1,4]oxazin-6-yl)-5-fluoro-N2-(3,4,5-trimethoxyphenyl)-2,4-pyrimidinediamine], the “solubility of prodrug relative to active drug Compound 1” value in [1] (aqueous buffer under physiological conditions) is listed as “approximately 2000 times”. Further, the solubility in data set [1] (setting [16]) and in [1] (setting [17]) was over 5000 µg/mL throughout. In addition, in [11] (IV 1 mg/kg in PEG-400), the “plasma profile of prodrug after IV administration” value is recorded as “Rapid disappearance”. The “levels of drug metabolite Compound 1 after oral prodrug” value in data set [11] (oral, PEG-400) is listed as “high levels”. The “systemic presence of prodrug after oral administration” value in [11] (oral, PEG-400) was “no prodrug Compound 4 was present systemically”. Further, the “AUC/dose (Compound 1 exposure) / absorption, prodrug vs drug Compound 1” value in [11] (oral, Compound 4 4 mg/kg vs Compound 1 2.5 mg/kg in PEG-400) is reported as “nearly identical”. Besides, the “dependence of absorption on formulation” value in data set [11] (rats, PEG-400 and CMC solutions, powder in hard gelatin capsules) is reported as “not dependent upon formulation; also recorded: not dependent on formulation”. The clearance of prodrug entry in data set [11] (study of FIG. 4/5) was “rapidly cleared”. Besides, the stability result in [12] is “stable”. In addition, the “conversion to drug Compound 1” value was “metabolize to the active drug Compound 1; also recorded: conversion of Compound 4 to Compound 1 was observed” in data set [13] (intestinal and hepatic microsomes from a different source); “failed to convert” in [13] (microsomal preparations obtained from Xenotech). The “stability in rat plasma / hydrolysis to Compound 1” value in data set [14] was “metabolize to the active drug Compound 1; also recorded: unstable”.

With `COc1cc(Nc2ncc(F)c(Nc3ccc4c(n3)N(COP(=O)(O)O)C(=O)C(C)(C)O4)n2)cc(OC)c1OC` [Prodrug Salt 6, N4-(2,2-dimethyl-4-[(dihydrogenphosphonoxy)methyl]-3-oxo-5-pyrido[1,4]oxazin-6-yl)-5-fluoro-N2-(3,4,5-trimethoxyphenyl)-2,4-pyrimidinediamine mono calcium salt], the solubility in [1] (setting [18]) worked out at 15 µg/mL.

For the compound `COc1cc(Nc2ncc(F)c(Nc3ccc4c(n3)N(COP(=O)([O-])[O-])C(=O)C(C)(C)O4)n2)cc(OC)c1OC.[Na+].[Na+]` [prodrug salt hydrate 32, N4-(2,2-dimethyl-4-[(dihydrogenphosphonoxy)methyl]-3-oxo-5-pyrido[1,4]oxazin-6-yl)-5-fluoro-N2-(3,4,5-trimethoxyphenyl)-2,4-pyrimidinediamine disodium salt hexahydrate], in data set [1] (setting [18]), the solubility is 10000 µg/mL. For the same compound, the water content entry in data set [15] (after humidity is increased) is “approximately 14.0%”. Besides, the moisture content result in data set [15] (dry conditions, ambient temperature, about 0% relative humidity) is “approximately 4.0%”. The “stability of hydration over relative humidity” value in [15] (hexahydrate form) is listed as “stable over a wide range of relative humidities”.

These data come from patent publication USRE48898E1, “Prodrugs of 2,4-pyrimidinediamine compounds and their uses” (Rigel Pharmaceuticals, Inc., priority 2006, dated 2022).
